Measurements: the NIST ThermoML archive (doi:10.1021/je800248w)

Tests used:
[1] = molar heat capacity at constant pressure; xn = mol fraction of the nth substance listed; conditions: 101.3 kPa, Liquid, Small sample (50 mg) DSC
[2] = excess molar enthalpy (molar enthalpy of mixing); xn = mol fraction of the nth substance listed; conditions: 101 kPa, Liquid, Calvet calorimetry

CCn1cc[n+](C)c1.O=C([O-])C(F)(F)F [1-ethyl-3-methylimidazolium trifluoroacetate] + O
Conditions	excess molar enthalpy [kcal/mol]	molar heat capacity at constant pressure [J/K/mol]
[1], 283.15 K, x2 = 0	–	308
[1], 283.15 K, x2 = 0.2025	–	264
[1], 283.15 K, x2 = 0.3973	–	226
[1], 283.15 K, x2 = 0.5817	–	182
[1], 283.15 K, x2 = 0.7562	–	139
[1], 283.15 K, x2 = 0.842	–	117
[1], 283.15 K, x2 = 0.9256	–	99
[1], 283.15 K, x2 = 0.9668	–	87
[1], 283.15 K, x2 = 0.9912	–	78
[1], 293.15 K, x2 = 0	–	313
[1], 293.15 K, x2 = 0.2025	–	269
[1], 293.15 K, x2 = 0.3973	–	231
[1], 293.15 K, x2 = 0.5817	–	186
[1], 293.15 K, x2 = 0.7562	–	143
[1], 293.15 K, x2 = 0.842	–	120
[1], 293.15 K, x2 = 0.9256	–	100
[1], 293.15 K, x2 = 0.9668	–	90
[1], 293.15 K, x2 = 0.9912	–	80
[1], 303.15 K, x2 = 0	–	320
[1], 303.15 K, x2 = 0.2025	–	274
[1], 303.15 K, x2 = 0.3973	–	238
[1], 303.15 K, x2 = 0.5817	–	191
[1], 303.15 K, x2 = 0.7562	–	147
[1], 303.15 K, x2 = 0.842	–	122
[1], 303.15 K, x2 = 0.9256	–	102
[1], 303.15 K, x2 = 0.9668	–	91
[1], 303.15 K, x2 = 0.9912	–	80
[1], 313.15 K, x2 = 0	–	324
[1], 313.15 K, x2 = 0.2025	–	276
[1], 313.15 K, x2 = 0.3973	–	241
[1], 313.15 K, x2 = 0.5817	–	194
[1], 313.15 K, x2 = 0.7562	–	150
[1], 313.15 K, x2 = 0.842	–	124
[1], 313.15 K, x2 = 0.9256	–	103
[1], 313.15 K, x2 = 0.9668	–	92
[1], 313.15 K, x2 = 0.9912	–	81
[1], 323.15 K, x2 = 0	–	328
[1], 323.15 K, x2 = 0.2025	–	280
[1], 323.15 K, x2 = 0.3973	–	245
[1], 323.15 K, x2 = 0.5817	–	198
[1], 323.15 K, x2 = 0.7562	–	153
[1], 323.15 K, x2 = 0.842	–	126
[1], 323.15 K, x2 = 0.9256	–	104
[1], 323.15 K, x2 = 0.9668	–	92
[1], 323.15 K, x2 = 0.9912	–	81
[1], 333.15 K, x2 = 0	–	332
[1], 333.15 K, x2 = 0.2025	–	285
[1], 333.15 K, x2 = 0.3973	–	251
[1], 333.15 K, x2 = 0.5817	–	201
[1], 333.15 K, x2 = 0.7562	–	155
[1], 333.15 K, x2 = 0.842	–	127
[1], 333.15 K, x2 = 0.9256	–	104
[1], 333.15 K, x2 = 0.9668	–	92
[1], 333.15 K, x2 = 0.9912	–	81
[1], 343.15 K, x2 = 0	–	337
[1], 343.15 K, x2 = 0.2025	–	290
[1], 343.15 K, x2 = 0.3973	–	254
[1], 343.15 K, x2 = 0.5817	–	204
[1], 343.15 K, x2 = 0.7562	–	157
[1], 343.15 K, x2 = 0.842	–	129
[1], 343.15 K, x2 = 0.9256	–	105
[1], 343.15 K, x2 = 0.9668	–	92
[1], 343.15 K, x2 = 0.9912	–	81
[2], 313.04 K, x2 = 0.2499	-0.315	–
[2], 313.04 K, x2 = 0.25	-0.315	–
[2], 313.04 K, x2 = 0.498	-0.511	–
[2], 313.04 K, x2 = 0.4981	-0.511	–
[2], 313.04 K, x2 = 0.7483	-0.49	–
[2], 313.04 K, x2 = 0.7484	-0.49	–
[2], 323.04 K, x2 = 0.2474	-0.312	–
[2], 323.04 K, x2 = 0.2485	-0.313	–
[2], 323.04 K, x2 = 0.4967	-0.501	–
[2], 323.04 K, x2 = 0.4993	-0.502	–
[2], 323.04 K, x2 = 0.7472	-0.469	–
[2], 323.04 K, x2 = 0.7482	-0.468	–
[2], 333.06 K, x2 = 0.2464	-0.311	–
[2], 333.06 K, x2 = 0.2477	-0.312	–
[2], 333.06 K, x2 = 0.4934	-0.492	–
[2], 333.06 K, x2 = 0.4966	-0.494	–
[2], 333.06 K, x2 = 0.7466	-0.449	–
[2], 333.06 K, x2 = 0.7476	-0.448	–
[2], 348.06 K, x2 = 0.2486	-0.312	–
[2], 348.06 K, x2 = 0.2489	-0.311	–
[2], 348.06 K, x2 = 0.4979	-0.478	–
[2], 348.06 K, x2 = 0.4994	-0.478	–
[2], 348.06 K, x2 = 0.748	-0.412	–
[2], 348.06 K, x2 = 0.7484	-0.411	–

CCn1cc[n+](C)c1.O=S(=O)([O-])C(F)(F)F [1-ethyl-3-methylimidazolium trifluoromethanesulfonate] + O
Conditions	excess molar enthalpy [kcal/mol]	molar heat capacity at constant pressure [J/K/mol]
[1], 283.15 K, x2 = 0	–	353
[1], 283.15 K, x2 = 0.2259	–	283
[1], 283.15 K, x2 = 0.4351	–	226
[1], 283.15 K, x2 = 0.6152	–	181
[1], 283.15 K, x2 = 0.7835	–	135
[1], 283.15 K, x2 = 0.8614	–	114
[1], 283.15 K, x2 = 0.9353	–	94
[1], 283.15 K, x2 = 0.9712	–	80
[1], 283.15 K, x2 = 0.9924	–	76
[1], 293.15 K, x2 = 0	–	358
[1], 293.15 K, x2 = 0.2259	–	287
[1], 293.15 K, x2 = 0.4351	–	230
[1], 293.15 K, x2 = 0.6152	–	184
[1], 293.15 K, x2 = 0.7835	–	137
[1], 293.15 K, x2 = 0.8614	–	115
[1], 293.15 K, x2 = 0.9353	–	95
[1], 293.15 K, x2 = 0.9712	–	81
[1], 293.15 K, x2 = 0.9924	–	77
[1], 303.15 K, x2 = 0	–	366
[1], 303.15 K, x2 = 0.2259	–	294
[1], 303.15 K, x2 = 0.4351	–	236
[1], 303.15 K, x2 = 0.6152	–	189
[1], 303.15 K, x2 = 0.7835	–	140
[1], 303.15 K, x2 = 0.8614	–	118
[1], 303.15 K, x2 = 0.9353	–	97
[1], 303.15 K, x2 = 0.9712	–	83
[1], 303.15 K, x2 = 0.9924	–	78
[1], 313.15 K, x2 = 0	–	371
[1], 313.15 K, x2 = 0.2259	–	298
[1], 313.15 K, x2 = 0.4351	–	239
[1], 313.15 K, x2 = 0.6152	–	191
[1], 313.15 K, x2 = 0.7835	–	142
[1], 313.15 K, x2 = 0.8614	–	120
[1], 313.15 K, x2 = 0.9353	–	98
[1], 313.15 K, x2 = 0.9712	–	83
[1], 313.15 K, x2 = 0.9924	–	78
[1], 323.15 K, x2 = 0	–	376
[1], 323.15 K, x2 = 0.2259	–	302
[1], 323.15 K, x2 = 0.4351	–	242
[1], 323.15 K, x2 = 0.6152	–	193
[1], 323.15 K, x2 = 0.7835	–	144
[1], 323.15 K, x2 = 0.8614	–	122
[1], 323.15 K, x2 = 0.9353	–	99
[1], 323.15 K, x2 = 0.9712	–	84
[1], 323.15 K, x2 = 0.9924	–	78
[1], 333.15 K, x2 = 0	–	380
[1], 333.15 K, x2 = 0.2259	–	306
[1], 333.15 K, x2 = 0.4351	–	245
[1], 333.15 K, x2 = 0.6152	–	195
[1], 333.15 K, x2 = 0.7835	–	146
[1], 333.15 K, x2 = 0.8614	–	123
[1], 333.15 K, x2 = 0.9353	–	99
[1], 333.15 K, x2 = 0.9712	–	85
[1], 333.15 K, x2 = 0.9924	–	79
[1], 343.15 K, x2 = 0	–	384
[1], 343.15 K, x2 = 0.2259	–	311
[1], 343.15 K, x2 = 0.4351	–	249
[1], 343.15 K, x2 = 0.6152	–	197
[1], 343.15 K, x2 = 0.7835	–	148
[1], 343.15 K, x2 = 0.8614	–	125
[1], 343.15 K, x2 = 0.9353	–	100
[1], 343.15 K, x2 = 0.9712	–	85
[1], 343.15 K, x2 = 0.9924	–	79
[2], 313.13 K, x2 = 0.2487	0.168	–
[2], 313.13 K, x2 = 0.2495	0.168	–
[2], 313.13 K, x2 = 0.4958	0.269	–
[2], 313.13 K, x2 = 0.4972	0.269	–
[2], 313.13 K, x2 = 0.7477	0.242	–
[2], 323.12 K, x2 = 0.2476	0.166	–
[2], 323.12 K, x2 = 0.2495	0.167	–
[2], 323.12 K, x2 = 0.4959	0.276	–
[2], 323.12 K, x2 = 0.4969	0.275	–
[2], 323.12 K, x2 = 0.7471	0.259	–
[2], 323.12 K, x2 = 0.7474	0.258	–
[2], 333.13 K, x2 = 0.2482	0.167	–
[2], 333.13 K, x2 = 0.2485	0.167	–
[2], 333.13 K, x2 = 0.495	0.283	–
[2], 333.13 K, x2 = 0.4986	0.284	–
[2], 333.13 K, x2 = 0.7477	0.277	–
[2], 333.13 K, x2 = 0.7479	0.276	–
[2], 348.12 K, x2 = 0.2497	0.168	–
[2], 348.12 K, x2 = 0.2514	0.169	–
[2], 348.12 K, x2 = 0.4967	0.297	–
[2], 348.12 K, x2 = 0.4985	0.298	–
[2], 348.12 K, x2 = 0.748	0.308	–
[2], 348.12 K, x2 = 0.7481	0.307	–
